*1 amine or outer side, *2 acyl side, *3 side chain or, on linkers, in order; H or OH if unused. Where a SMILES comes first, the peptide text is derived from it. Bridges are numbered along the chain shown (N, C = ends). Roman numbers before positions name the chains, in order. [ ]: non-standard residue; d: D form. Actinocin(9to1) = Cc1c2oc3c(C)ccc(C(=O)[*:1])c3nc-2c(C(=O)[*:2])c(N)c1=O; NMeV = CN[C@H](C(=O)O)C(C)C; Sar = CNCC(=O)O
What was measured:
[1] = system: TMV-infected NN tobacco leaves; assay: Induction of necrotic lesion formation by protease inhibitors in TMV-inoculated detached leaves, NN tobacco; type: in vivo, N. tabacum cv. Samsun NN; design: key to induction of necrotic lesion formation, Tobacco cv. NN: (−) = Necrotic lesion not induced; (+) = Necrotic lesion induced
Protocol: (§1) The following reagents were used as inhibitors: APMSF, Aprotinin and 3,4-D as serine protease inhibitors, E-64 as a cysteine protease inhibitor, EDTA as a metalloprotease inhibitor, and leupeptin as a serine/cysteine protease inhibitor. Each inhibitor was prepared as described below.
(§2) For EDTA (Wako Pure Chemicals. Ind. (Osaka, Japan), an aqueous solution adjusted to pH 8.0 by NaOH was used.
(§3) For E-64 (Boehringer Mannheim, Germany), a 50 mM solution in methanol/H2O (1:1, v/v) was used as a stock solution and subsequently diluted in water to the concentrations indicated below.
(§4) For 3,4-D (Boehringer Mannheim, Germany), a 50 mM solution in dimethyl sulfoxide was used as a stock solution and subsequently diluted in water to the concentrations indicated below.
(§5) Leupeptin, Aprotinin, and APMSP were each used as an aqueous solution.
(§6) In this example, EDTA was used at concentrations of 1 mM, […] and 50 mM, and other inhibitors were used at concentrations of 0.01 mM, 0.1 mM and 1 mM.
(§7) Prior to reagent treatment, tobacco leaves were detached, inoculated with TMV (8 μg/ml in a phosphate buffer (pH 7.0)) or mock (buffer alone), and incubated at 30° C. for 40 hr. After the incubation, petioles of the leaves were put into vials containing 0.5 ml of inhibitor solutions. The solution was absorbed through the petioles and sterile water was added to the vials within 1 hr. The treated leaves were then further incubated at 30° C.

[2] = system: TMV-infected NN tobacco leaves; assay: Induction of necrotic lesion formation by protease inhibitors in TMV-inoculated detached leaves, nn tobacco; type: in vivo, N. tabacum cv. Samsun nn; design: key: (−) = Necrotic lesion not induced; (+) = Necrotic lesion induced
Protocol: as §1, §2, §3, §4, §5, §6, §7

DS9 = DS9 transcription level and protein amount after AMD treatment (northern and western blotting analysis); type: in vivo, NN tobacco
Protocol: Prior to the treatments, tobacco leaves were detached, inoculated with TMV (10 μg/ml in a phosphate buffer (pH 7.0)) or mock inoculated (buffer alone), and incubated at 30° C. for 40 hr. For reagent treatment, after the incubation, petioles of the leaves were put into vials containing 0.5 ml of an inhibitor solutions containing AMD (Sigma Chemical Co., St. Louis, Mo., USA) as a 10% (v/v) methanol aqueous solution. The solution was absorbed through the petioles, and sterile water was added to the vials within 1 hr. For heat treatment, a TMV-infected NN tobacco was subjected to heat shock by treating at 50° C. for 2 minutes. Each of the treated leaves was then further incubated at 30° C. Northern analysis and Western blot analysis were performed as described in Examples 4 and 6. In addition, those treated with water were used as controls.

TMV-infected NN tobacco [3] = conditions: AMD and heat (50° C., 2 minutes), 30° C.; cited from earlier work
TMV-infected NN tobacco [4] = conditions: AMD and heat (50° C., 2 minutes); cited from earlier work
TMV-infected NN tobacco [5] = assay: Induction of HR by EDTA and DCMU treatments, NN tobacco; type: in vivo, N. tabacum cv. Samsun NN; conditions: 30° C., EDTA 5 mM, DCMU 100 mM, necrotic lesion, PR-1 expression, salicylic acid
Protocol: (§8) To perform an inhibitor treatment with NN tobacco and nn tobacco, EDTA, a metalloprotease inhibitor, and DCMU (3-(3,4-dichlorophenyl)-1,1-dimethylurea) (Sigma Chemical Co., St Louis, Mo., USA), an inhibitor of electron transport in a photochemical system II (PSII), were used as described in Example 8. An EDTA solution was prepared as described in Example 8. The DCMU was dissolved in methanol. The concentration of the inhibitors were 5 mM and 100 mM, respectively.
(§9) After the treatment, leavs were further incubated at 30° C., then examined regarding the followig: formation of a necrotic lesion; expression of PR-1; presence of a marker gene for the HR protein; and accumulation of salicylic acid. For expression of the PR gene, Northern analysis was performed as described in Example 4. Salicylic acid was quantitated as follows.
(§10) Free salicylic acid was extracted and quantitated as described by Malamy et al. (The Plant Cell, 4, 359 (1992)). HPLC analysis was performed on a μBondasphere, 5-μm C-18 (3.9 mm×15 cm) column maintained at 40° C. Isocratic separation was conducted with 23% (v/v) methanol in 20 mM sodium acetate (pH 5.0). Fluorescence detection was performed at using a Model RF-550A (Shimazu, Japan) at […]. All data were corrected for losses.

TMV-infected NN tobacco [6] = assay: Induction of HR by EDTA and DCMU treatments, nn tobacco; type: in vivo, N. tabacum cv. Samsun nn; conditions: 30° C., EDTA 5 mM, DCMU 100 mM, necrotic lesion, PR-1 expression, salicylic acid
Protocol: as §8, §9, §10

[7] = TMV-inoculated leaves at 30° C., EDTA 1 mM, 10 mM and 50 mM, other inhibitors 0.01 mM, 0.1 mM and 1 mM

## O=c1oc(Cl)c(Cl)c2ccccc12 [3,4-D]
[1]; [7]
  induction of necrotic lesion formation, Tobacco cv. NN: −
[2]; [7]
  induction of necrotic lesion formation, Tobacco cv. nn: −

## Cc1c2oc3c(C)ccc(C(=O)N[C@@H]4C(=O)N[C@H](C(C)C)C(=O)N5CCC[C@H]5C(=O)N(C)CC(=O)N(C)[C@@H](C(C)C)C(=O)O[C@@H]4C)c3nc-2c(C(=O)N[C@@H]2C(=O)N[C@H](C(C)C)C(=O)N3CCC[C@H]3C(=O)N(C)CC(=O)N(C)[C@@H](C(C)C)C(=O)O[C@@H]2C)c(N)c1=O [AMD, actinomycin D] (I: T[dV]P[Sar][NMeV] / II: T[dV]P[Sar][NMeV]; ester I:1-I:C, II:1-II:C; linker I:N-II:N via Actinocin(9to1))
DS9; TMV-infected NN tobacco, 30° C., northern analysis
  DS9 transcription level: decrease significantly
DS9; TMV-infected NN tobacco, 30° C., western blot
  DS9 protein amount: decrease significantly
DS9; leaf subjected to mock infection, treated with AMD and heat shock (HS)
  amount of the DS9 protein, mock infected leaf: remarkably decreased
TMV-infected NN tobacco [3]
  HR against TMV infection, NN tobacco: the HR is induced
TMV-infected NN tobacco [4]
  HR against TMV infection, nn tobacco: the HR was also induced

## N=C(N)c1ccc(CS(=O)(=O)F)cc1 [APMSF]
[1]; [7]
  induction of necrotic lesion formation, Tobacco cv. NN: −
[2]; [7]
  induction of necrotic lesion formation, Tobacco cv. nn: −

## CN(C)C(=O)Nc1ccc(Cl)c(Cl)c1 [DCMU, 3-(3,4-dichlorophenyl)-1,1-dimethylurea]
TMV-infected NN tobacco [5]
  induction of the HR in NN tobacco: induced the HR
TMV-infected NN tobacco [6]
  induction of the HR in nn tobacco: induced the HR

## CC(C)C[C@H](NC(=O)[C@H]1O[C@@H]1C(=O)O)C(=O)NCCCCN=C(N)N [E-64]
[1]; [7]
  induction of necrotic lesion formation, Tobacco cv. NN: −
[2]; [7]
  induction of necrotic lesion formation, Tobacco cv. nn: −

## O=C(O)CN(CCN(CC(=O)O)CC(=O)O)CC(=O)O [EDTA]
[1]; in vivo
  induction of necrotic lesion formation, Tobacco cv. NN: +
  necrotic lesion in NN tobacco: necrotic lesion was induced
[2]; in vivo
  induction of necrotic lesion formation, Tobacco cv. nn: +
TMV-infected NN tobacco [5]
  induction of the HR in NN tobacco: induced the HR
TMV-infected NN tobacco [6]
  induction of the HR in nn tobacco: induced the HR

## CC(=O)N[C@@H](CC(C)C)C(=O)N[C@@H](CC(C)C)C(=O)N[C@H](C=O)CCCNC(=N)N [leupeptin]
[1]; [7]
  induction of necrotic lesion formation, Tobacco cv. NN: −
[2]; [7]
  induction of necrotic lesion formation, Tobacco cv. nn: −

## Aprotinin
[1]; [7]
  induction of necrotic lesion formation, Tobacco cv. NN: −
[2]; [7]
  induction of necrotic lesion formation, Tobacco cv. nn: −
